What was measured:
Assay in all cases: KINOMEscan competition binding
Conditions in all cases: compound 1.0 µM
CAMK1D (human) = CAMK1D (human) (UniProt Q8IU85)
IGF1R (human) = IGF1R (human) (UniProt P08069)
MELK (human) = MELK (human) (UniProt Q14680)
HIPK2 (human) = HIPK2 (human) (UniProt Q9H2X6)
TESK1 (human) = TESK1 (human) (UniProt Q15569)
MAPK6 (human) = MAPK6 (human) (UniProt Q16659)
CDK8 (human) = CDK8 (human) (UniProt P49336)
BRSK2 (human) = BRSK2 (human) (UniProt Q8IWQ3)
[1] = tested on: RET (human), P07949 [M918T]
AKT1 (human) = AKT1 (human) (UniProt P31749)
AKT3 (human) = AKT3 (human) (UniProt Q9Y243)
CDK5 (human) = CDK5 (human) (UniProt Q00535)
HIPK4 (human) = HIPK4 (human) (UniProt Q8NE63)
PRKACA (human) = PRKACA (human) (UniProt P17612)
ACVR1B (human) = ACVR1B (human) (UniProt P36896)
MAPK15 (human) = MAPK15 (human) (UniProt Q8TD08)
YSK4 (human) = YSK4 (human) (UniProt Q56UN5)
WEE2 (human) = WEE2 (human) (UniProt P0C1S8)
ULK1 (human) = ULK1 (human) (UniProt O75385)
[2] = tested on: FLT3 (human), P36888 [ITD]
NTRK3 (human) = NTRK3 (human) (UniProt Q16288)
CSNK1G1 (human) = CSNK1G1 (human) (UniProt Q9HCP0)
AAK1 (human) = AAK1 (human) (UniProt Q2M2I8)
FGFR1 (human) = FGFR1 (human) (UniProt P11362)
ERBB4 (human) = ERBB4 (human) (UniProt Q15303)
CAMKK1 (human) = CAMKK1 (human) (UniProt Q8N5S9)
GAK (human) = GAK (human) (UniProt O14976)
CDC42BPB (human) = CDC42BPB (human) (UniProt Q9Y5S2)
LCK (human) = LCK (human) (UniProt P06239)
PDGFRA (human) = PDGFRA (human) (UniProt P16234)
STK3 (human) = STK3 (human) (UniProt Q13188)
TGFBR2 (human) = TGFBR2 (human) (UniProt P37173)
EPHA4 (human) = EPHA4 (human) (UniProt P54764)
TGFBR1 (human) = TGFBR1 (human) (UniProt P36897)
MAPK3 (human) = MAPK3 (human) (UniProt P27361)

Sequence of GAK (human) (O14976 whole entry, looked up): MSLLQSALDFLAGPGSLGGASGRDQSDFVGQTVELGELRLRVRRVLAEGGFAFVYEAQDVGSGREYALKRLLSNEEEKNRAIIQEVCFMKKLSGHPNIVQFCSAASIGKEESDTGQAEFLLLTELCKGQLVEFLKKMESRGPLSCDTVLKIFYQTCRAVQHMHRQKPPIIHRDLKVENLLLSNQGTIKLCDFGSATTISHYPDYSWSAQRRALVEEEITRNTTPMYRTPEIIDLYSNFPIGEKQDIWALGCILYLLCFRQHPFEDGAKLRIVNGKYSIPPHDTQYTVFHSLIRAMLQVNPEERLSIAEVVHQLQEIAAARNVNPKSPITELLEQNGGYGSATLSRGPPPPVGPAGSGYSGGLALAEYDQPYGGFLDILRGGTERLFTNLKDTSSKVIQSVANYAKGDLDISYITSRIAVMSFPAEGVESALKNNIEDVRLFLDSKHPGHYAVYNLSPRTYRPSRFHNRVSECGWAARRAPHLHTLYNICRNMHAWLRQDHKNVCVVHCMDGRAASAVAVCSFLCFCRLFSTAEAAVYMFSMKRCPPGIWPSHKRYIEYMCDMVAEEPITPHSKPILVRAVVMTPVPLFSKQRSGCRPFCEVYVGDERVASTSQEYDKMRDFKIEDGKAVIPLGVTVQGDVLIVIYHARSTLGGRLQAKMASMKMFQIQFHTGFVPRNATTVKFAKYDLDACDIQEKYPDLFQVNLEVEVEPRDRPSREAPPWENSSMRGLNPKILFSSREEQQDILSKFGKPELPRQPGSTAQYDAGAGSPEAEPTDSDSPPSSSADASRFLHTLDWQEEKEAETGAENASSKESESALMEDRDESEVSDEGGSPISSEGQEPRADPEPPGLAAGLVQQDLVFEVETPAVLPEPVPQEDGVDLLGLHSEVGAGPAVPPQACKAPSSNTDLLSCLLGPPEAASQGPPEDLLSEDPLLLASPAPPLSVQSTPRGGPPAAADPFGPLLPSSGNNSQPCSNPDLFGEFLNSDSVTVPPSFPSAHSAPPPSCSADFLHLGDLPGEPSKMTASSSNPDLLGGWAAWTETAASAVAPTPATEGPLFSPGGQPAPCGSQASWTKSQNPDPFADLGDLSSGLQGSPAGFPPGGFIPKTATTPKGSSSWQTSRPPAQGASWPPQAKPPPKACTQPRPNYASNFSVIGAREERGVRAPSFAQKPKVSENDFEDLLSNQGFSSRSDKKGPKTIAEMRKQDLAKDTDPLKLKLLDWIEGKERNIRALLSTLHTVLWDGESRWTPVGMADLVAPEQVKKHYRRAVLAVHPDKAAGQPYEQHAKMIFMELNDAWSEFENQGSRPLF
Sequence of TESK1 (human) (Q15569 whole entry, looked up): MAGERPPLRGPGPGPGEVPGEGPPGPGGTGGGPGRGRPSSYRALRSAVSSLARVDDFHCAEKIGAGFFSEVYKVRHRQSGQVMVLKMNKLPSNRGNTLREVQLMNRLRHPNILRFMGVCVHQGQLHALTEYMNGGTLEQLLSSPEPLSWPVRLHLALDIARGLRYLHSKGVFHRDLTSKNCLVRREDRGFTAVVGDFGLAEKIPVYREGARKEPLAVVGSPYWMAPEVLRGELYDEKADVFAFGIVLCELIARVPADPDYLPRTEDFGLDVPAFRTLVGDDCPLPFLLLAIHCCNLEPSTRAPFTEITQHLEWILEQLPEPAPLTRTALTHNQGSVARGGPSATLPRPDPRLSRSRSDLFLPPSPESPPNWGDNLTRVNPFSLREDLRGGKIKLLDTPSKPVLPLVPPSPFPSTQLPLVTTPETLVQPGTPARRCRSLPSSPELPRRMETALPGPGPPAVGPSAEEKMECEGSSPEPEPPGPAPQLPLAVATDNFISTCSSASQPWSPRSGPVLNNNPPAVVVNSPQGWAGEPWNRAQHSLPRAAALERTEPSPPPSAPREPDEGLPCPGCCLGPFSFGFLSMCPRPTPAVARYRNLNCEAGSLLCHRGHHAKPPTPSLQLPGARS
Sequence of TGFBR2 (human) (P37173 whole entry, looked up): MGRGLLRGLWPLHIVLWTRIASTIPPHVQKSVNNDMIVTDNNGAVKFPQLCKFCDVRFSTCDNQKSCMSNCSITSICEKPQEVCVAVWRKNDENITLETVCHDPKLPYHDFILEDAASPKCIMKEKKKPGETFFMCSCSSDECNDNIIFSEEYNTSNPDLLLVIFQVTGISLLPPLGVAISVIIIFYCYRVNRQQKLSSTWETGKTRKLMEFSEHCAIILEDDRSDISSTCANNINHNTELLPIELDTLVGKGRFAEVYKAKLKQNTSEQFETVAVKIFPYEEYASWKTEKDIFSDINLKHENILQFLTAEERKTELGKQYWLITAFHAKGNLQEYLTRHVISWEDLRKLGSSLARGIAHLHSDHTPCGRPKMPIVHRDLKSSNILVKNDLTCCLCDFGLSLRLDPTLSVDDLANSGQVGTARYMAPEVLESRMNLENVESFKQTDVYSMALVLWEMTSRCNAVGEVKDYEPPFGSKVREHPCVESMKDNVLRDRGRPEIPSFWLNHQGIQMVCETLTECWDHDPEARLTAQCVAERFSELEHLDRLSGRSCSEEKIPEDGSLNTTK
Sequence of IGF1R (human) (P08069 whole entry, looked up): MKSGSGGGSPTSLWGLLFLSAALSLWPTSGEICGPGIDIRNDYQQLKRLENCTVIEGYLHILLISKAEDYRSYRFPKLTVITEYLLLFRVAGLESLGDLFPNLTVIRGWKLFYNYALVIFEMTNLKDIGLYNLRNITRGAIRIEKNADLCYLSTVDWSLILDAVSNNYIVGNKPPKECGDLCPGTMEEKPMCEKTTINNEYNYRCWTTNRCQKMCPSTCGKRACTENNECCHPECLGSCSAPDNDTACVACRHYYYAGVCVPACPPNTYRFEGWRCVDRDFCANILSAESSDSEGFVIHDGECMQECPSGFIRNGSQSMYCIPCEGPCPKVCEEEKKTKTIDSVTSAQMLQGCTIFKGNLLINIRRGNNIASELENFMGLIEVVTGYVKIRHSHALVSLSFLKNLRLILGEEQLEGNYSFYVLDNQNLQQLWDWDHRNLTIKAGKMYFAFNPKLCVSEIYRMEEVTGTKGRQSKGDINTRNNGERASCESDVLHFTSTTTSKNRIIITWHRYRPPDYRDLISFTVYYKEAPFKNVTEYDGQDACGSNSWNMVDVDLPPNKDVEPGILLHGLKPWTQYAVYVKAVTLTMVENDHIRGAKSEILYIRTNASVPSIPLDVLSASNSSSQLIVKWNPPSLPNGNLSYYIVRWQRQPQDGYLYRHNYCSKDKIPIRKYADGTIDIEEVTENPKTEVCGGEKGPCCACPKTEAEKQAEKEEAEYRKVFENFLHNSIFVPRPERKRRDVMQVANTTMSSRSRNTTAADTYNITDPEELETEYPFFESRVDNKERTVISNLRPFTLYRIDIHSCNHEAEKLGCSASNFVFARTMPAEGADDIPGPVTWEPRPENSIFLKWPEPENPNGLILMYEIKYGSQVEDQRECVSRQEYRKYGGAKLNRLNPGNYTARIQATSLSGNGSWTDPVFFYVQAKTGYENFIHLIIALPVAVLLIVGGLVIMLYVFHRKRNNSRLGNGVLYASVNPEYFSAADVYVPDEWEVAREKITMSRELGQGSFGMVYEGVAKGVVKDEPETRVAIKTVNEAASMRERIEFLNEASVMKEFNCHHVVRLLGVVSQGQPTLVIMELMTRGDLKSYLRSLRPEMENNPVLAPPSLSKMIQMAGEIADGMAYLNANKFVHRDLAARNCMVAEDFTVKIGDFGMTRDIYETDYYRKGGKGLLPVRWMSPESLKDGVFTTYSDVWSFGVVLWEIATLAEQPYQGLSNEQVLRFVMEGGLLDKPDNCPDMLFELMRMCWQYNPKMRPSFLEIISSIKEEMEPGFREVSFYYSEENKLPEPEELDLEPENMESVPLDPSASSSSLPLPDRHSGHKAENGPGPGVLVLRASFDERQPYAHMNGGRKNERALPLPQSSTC
Sequence of HIPK4 (human) (Q8NE63 whole entry, looked up): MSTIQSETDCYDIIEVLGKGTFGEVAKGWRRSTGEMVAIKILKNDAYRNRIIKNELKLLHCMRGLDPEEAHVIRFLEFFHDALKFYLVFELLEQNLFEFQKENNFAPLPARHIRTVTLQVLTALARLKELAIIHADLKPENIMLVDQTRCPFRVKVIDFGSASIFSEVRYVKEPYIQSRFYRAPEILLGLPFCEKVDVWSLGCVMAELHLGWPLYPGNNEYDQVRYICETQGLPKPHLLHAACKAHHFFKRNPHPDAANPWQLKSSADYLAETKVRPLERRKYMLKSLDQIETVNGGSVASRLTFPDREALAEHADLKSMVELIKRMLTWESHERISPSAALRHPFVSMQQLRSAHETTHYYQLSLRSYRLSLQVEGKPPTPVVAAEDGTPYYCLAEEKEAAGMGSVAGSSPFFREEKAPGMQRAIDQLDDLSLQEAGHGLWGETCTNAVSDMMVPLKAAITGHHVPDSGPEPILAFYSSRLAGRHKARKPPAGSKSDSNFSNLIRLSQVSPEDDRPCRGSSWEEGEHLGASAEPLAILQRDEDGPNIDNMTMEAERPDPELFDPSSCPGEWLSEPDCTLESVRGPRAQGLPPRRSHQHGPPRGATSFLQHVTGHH
Sequence of MAPK15 (human) (Q8TD08 whole entry, looked up): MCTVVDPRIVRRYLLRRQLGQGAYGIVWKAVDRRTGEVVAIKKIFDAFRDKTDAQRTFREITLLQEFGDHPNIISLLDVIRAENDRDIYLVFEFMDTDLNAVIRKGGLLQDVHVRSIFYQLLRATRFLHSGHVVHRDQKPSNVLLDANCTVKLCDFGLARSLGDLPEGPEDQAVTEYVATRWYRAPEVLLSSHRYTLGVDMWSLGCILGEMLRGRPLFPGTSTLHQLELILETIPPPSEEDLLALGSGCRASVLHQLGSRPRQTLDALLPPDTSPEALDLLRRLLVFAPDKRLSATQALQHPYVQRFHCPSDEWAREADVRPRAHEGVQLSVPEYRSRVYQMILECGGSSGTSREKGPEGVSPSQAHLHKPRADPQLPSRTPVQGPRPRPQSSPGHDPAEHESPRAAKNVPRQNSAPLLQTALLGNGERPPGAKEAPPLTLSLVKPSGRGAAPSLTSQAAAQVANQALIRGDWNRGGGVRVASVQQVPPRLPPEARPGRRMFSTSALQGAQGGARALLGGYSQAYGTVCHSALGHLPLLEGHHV

Compound CNc1nc(Nc2ccc(C(=O)N3CCOCC3)cc2OC)ncc1Cl has a kinase still bound, per cent of control (CAMK1D (human)) of 100%, a residual activity (IGF1R (human)) of 100% and a kinase still bound, per cent of control (MELK (human)) of 100%. For the same compound, the kinase still bound, per cent of control (HIPK2 (human)) was 100%, the kinase still bound, per cent of control (TESK1 (human)) was 100% and the kinase still bound, per cent of control (MAPK6 (human)) was 100%. For the same compound, the residual activity (CDK8 (human)) was 100%, the kinase still bound, per cent of control (BRSK2 (human)) was 51% and the kinase still bound, per cent of control [1] was 100%. The kinase still bound, per cent of control (AKT1 (human)) was 99%, the kinase still bound, per cent of control (AKT3 (human)) was 81% and the residual activity (CDK5 (human)) was 100%. The kinase still bound, per cent of control (HIPK4 (human)) was 100%, the residual activity (PRKACA (human)) was 100% and the kinase still bound, per cent of control (ACVR1B (human)) was 100%. For the same compound, the kinase still bound, per cent of control (MAPK15 (human)) was 100%, the kinase still bound, per cent of control (YSK4 (human)) was 44% and the kinase still bound, per cent of control (WEE2 (human)) was 95%. The kinase still bound, per cent of control (ULK1 (human)) was 100%, the kinase still bound, per cent of control [2] was 87% and the kinase still bound, per cent of control (NTRK3 (human)) was 100%. It also gave a kinase still bound, per cent of control (CSNK1G1 (human)) of 55%, a kinase still bound, per cent of control (AAK1 (human)) of 38% and a kinase still bound, per cent of control (FGFR1 (human)) of 55%. For the same compound, the kinase still bound, per cent of control (ERBB4 (human)) was 100%, the kinase still bound, per cent of control (CAMKK1 (human)) was 79% and the kinase still bound, per cent of control (GAK (human)) was 25%. The kinase still bound, per cent of control (CDC42BPB (human)) was 100%, the kinase still bound, per cent of control (LCK (human)) was 100% and the kinase still bound, per cent of control (PDGFRA (human)) was 87%. For the same compound, the kinase still bound, per cent of control (STK3 (human)) was 76%, the kinase still bound, per cent of control (TGFBR2 (human)) was 100% and the kinase still bound, per cent of control (EPHA4 (human)) was 100%. For the same compound, the kinase still bound, per cent of control (TGFBR1 (human)) was 100% and the kinase still bound, per cent of control (MAPK3 (human)) was 100%.
